From PubChem BioAssay AID256 (DTP/NCI, 2004)
Where “and” joins values, the source holds several entries; their conditions need not be identical. Equal entries are not always repeated. Inconclusive results and toxic doses are left out. The calls were made as follows: active = survival T/C of 150% or more; inactive = T/C below 125% in these data.

Tested on: CD2F1 mice, L1210 leukemia ip, survival T/C
Assay: NCI In Vivo Anticancer Drug Screen. Data for tumor model L1210 Leukemia (intraperitoneal) in CD2F1 (CDF1) mice
Settings: higher = longer survival
Summary of the method: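 Mice carrying a transplanted tumor received test compound or vehicle alone. The value is the measurement in the treated group divided by that in the vehicle-treated control group.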

[1] = endpoint: mean survival time, dose: 50.0 mg/kg/injection, schedule: Q01DX009 (ip), vehicle: Klucel (hydroxypropylcellulose) (HPC)
[2] = endpoint: mean survival time, dose: 100.0 mg/kg/injection, schedule: Q01DX009 (ip), vehicle: Klucel (hydroxypropylcellulose) (HPC)
[3] = endpoint: mean survival time, dose: 100.0 mg/kg/injection, schedule: Q01DX009 (ip), vehicle: saline with Tween-80
[4] = endpoint: mean survival time, dose: 100.0 mg/kg/injection, schedule: Q04DX003 (ip), vehicle: saline with Tween-80
[5] = endpoint: mean survival time, dose: 200.0 mg/kg/injection, schedule: Q01DX009 (ip), vehicle: saline with Tween-80
[6] = endpoint: mean survival time, dose: 200.0 mg/kg/injection, schedule: Q04DX003 (ip), vehicle: saline with Tween-80
[7] = endpoint: mean survival time, dose: 400.0 mg/kg/injection, schedule: Q01DX009 (ip), vehicle: saline with Tween-80
[8] = endpoint: mean survival time, dose: 400.0 mg/kg/injection, schedule: Q04DX003 (ip), vehicle: saline with Tween-80
[9] = endpoint: mean survival time, dose: 100.0 mg/kg/injection, schedule: Q01DX001 (ip), vehicle: saline with Tween-80
[10] = endpoint: mean survival time, dose: 200.0 mg/kg/injection, schedule: Q01DX001 (ip), vehicle: saline with Tween-80
[11] = endpoint: mean survival time, dose: 400.0 mg/kg/injection, schedule: Q01DX001 (ip), vehicle: saline with Tween-80
[12] = endpoint: mean survival time, dose: 50.0 mg/kg/injection, schedule: Q01DX009 (ip), vehicle: saline with Tween-80

Measured: T/C

CN(C)c1ccc(/C=N/NC(=O)c2ccccc2NC(=O)c2ccccc2Cl)cc1
inactive: [1] 87 % of control | [2] 94 % of control | endpoint: mean survival time, dose: 200.0 mg/kg/injection, schedule: Q01DX009 (ip), vehicle: Klucel (hydroxypropylcellulose) (HPC) 91 % of control

CCOC(=O)/C=C/SCC(N)C(=O)OCC (stereo unspecified)
inactive: endpoint: mean survival time, dose: 25.0 mg/kg/injection, schedule: Q04DX002 (ip), vehicle: saline 98 % of control | endpoint: mean survival time, dose: 50.0 mg/kg/injection, schedule: Q04DX002 (ip), vehicle: saline 94 % of control | endpoint: mean survival time, dose: 100.0 mg/kg/injection, schedule: Q01DX001 (ip), vehicle: saline 101 % of control | endpoint: mean survival time, dose: 100.0 mg/kg/injection, schedule: Q04DX002 (ip), vehicle: saline 96 % of control

COc1cc(NC(=O)CC(C)=O)cc(OC)c1OC
inactive: [3] 100 % of control | [4] 102 % of control | [5] 100 % of control | [6] 96 % of control | [7] 101 % of control | [8] 96 % of control

Cc1nc(N)n[nH]1
inactive: [3] 92 % of control | endpoint: mean survival time, dose: 100.0 mg/kg/injection, schedule: Q04DX003 (ip), vehicle: saline 102 % of control | [5] 97 % of control | endpoint: mean survival time, dose: 200.0 mg/kg/injection, schedule: Q04DX003 (ip), vehicle: saline 100 % of control | [7] 88 % of control | endpoint: mean survival time, dose: 400.0 mg/kg/injection, schedule: Q04DX003 (ip), vehicle: saline 96 % of control

C=CCN(C(C)=O)c1nnc(N(CC=C)C(C)=O)s1
inactive: [9] 100 % of control | [10] 100 % of control | [11] 100 % of control

Cn1cnc([N+](=O)[O-])c1Sc1ncnc2c1cnn2C1OC(CO)C(O)C1O (stereo unspecified)
inactive: endpoint: mean survival time, dose: 25.0 mg/kg/injection, schedule: Q01DX009 (ip), vehicle: other 95 % of control | endpoint: mean survival time, dose: 50.0 mg/kg/injection, schedule: Q01DX009 (ip), vehicle: other 114 % of control | endpoint: mean survival time, dose: 100.0 mg/kg/injection, schedule: Q01DX009 (ip), vehicle: other 97 % of control | endpoint: mean survival time, dose: 200.0 mg/kg/injection, schedule: Q01DX009 (ip), vehicle: other 108 % of control | endpoint: mean survival time, dose: 400.0 mg/kg/injection, schedule: Q01DX009 (ip), vehicle: other 117 % of control | endpoint: median survival time, dose: 10.0 mg/kg/injection, schedule: Q01DX005 (ip), vehicle: saline with Tween-80 96 % of control | endpoint: median survival time, dose: 20.0 mg/kg/injection, schedule: Q01DX005 (ip), vehicle: saline with Tween-80 103 % of control | endpoint: median survival time, dose: 40.0 mg/kg/injection, schedule: Q01DX005 (ip), vehicle: saline with Tween-80 103 % of control | endpoint: median survival time, dose: 80.0 mg/kg/injection, schedule: Q01DX005 (ip), vehicle: saline with Tween-80 102 % of control | endpoint: median survival time, dose: 160.0 mg/kg/injection, schedule: Q01DX005 (ip), vehicle: saline with Tween-80 91 % of control

N#CSCN1C(=O)C2CC=CCC2C1=O (stereo unspecified)
inactive: endpoint: mean survival time, dose: 6.25 mg/kg/injection, schedule: Q04DX003 (ip), vehicle: saline with Tween-80 103 % of control | endpoint: mean survival time, dose: 12.5 mg/kg/injection, schedule: Q04DX003 (ip), vehicle: saline with Tween-80 101 % of control

O=C(NNC(=O)c1c(F)c(F)c(F)c(F)c1F)c1c(F)c(F)c(F)c(F)c1F
inactive: [3] 97 % of control | [5] 97 % of control

O=C(/C=C1\C(=O)Nc2ccccc21)/C=C1/C(=O)Nc2ccccc21
inactive: endpoint: mean survival time, dose: 25.0 mg/kg/injection, schedule: Q01DX009 (ip), vehicle: Klucel (hydroxypropylcellulose) (HPC) 97 % of control | [1] 104 % of control | [2] 95 % of control

CN(C)C1CCCCC1[N+](C)(C)C (stereo unspecified)
inactive: endpoint: mean survival time, dose: 5.0 mg/kg/injection, schedule: Q01DX009 (ip), vehicle: saline 101 % of control | endpoint: mean survival time, dose: 5.0 mg/kg/injection, schedule: Q04DX003 (ip), vehicle: saline 104 % of control | endpoint: mean survival time, dose: 10.0 mg/kg/injection, schedule: Q01DX009 (ip), vehicle: saline 107 % of control | endpoint: mean survival time, dose: 10.0 mg/kg/injection, schedule: Q04DX003 (ip), vehicle: saline 101 % of control | endpoint: mean survival time, dose: 20.0 mg/kg/injection, schedule: Q01DX009 (ip), vehicle: saline 104 % of control | endpoint: mean survival time, dose: 20.0 mg/kg/injection, schedule: Q04DX003 (ip), vehicle: saline 98 % of control

O=C1/C(=C\c2ccccc2)C2OCC=C3CN4CCC56c7ccccc7N1C5C2C3CC46 (stereo unspecified)
inactive: endpoint: mean survival time, dose: 75.0 mg/kg/injection, schedule: Q01DX001 (ip), vehicle: other 95 % of control

COc1ccc(CCNC(=O)Cc2ccccc2)cc1OC
inactive: [4] 103 % of control | [6] 94 % of control | [8] 91 % of control

O=C(O)CP(=O)(O)O
inactive: endpoint: mean survival time, dose: 4.0 mg/kg/injection, schedule: Q01DX009 (ip), vehicle: saline 98 % of control | endpoint: mean survival time, dose: 8.0 mg/kg/injection, schedule: Q01DX009 (ip), vehicle: saline 96 % of control | endpoint: mean survival time, dose: 16.0 mg/kg/injection, schedule: Q01DX009 (ip), vehicle: saline 104 % of control | endpoint: mean survival time, dose: 32.0 mg/kg/injection, schedule: Q01DX009 (ip), vehicle: saline 98 % of control | endpoint: mean survival time, dose: 37.5 mg/kg/injection, schedule: Q01DX009 (ip), vehicle: saline 91 % of control | endpoint: mean survival time, dose: 50.0 mg/kg/injection, schedule: Q01DX009 (ip), vehicle: saline 95 % of control and 103 % of control | endpoint: mean survival time, dose: 64.0 mg/kg/injection, schedule: Q01DX009 (ip), vehicle: saline 103 % of control | endpoint: mean survival time, dose: 75.0 mg/kg/injection, schedule: Q01DX009 (ip), vehicle: saline 102 % of control | endpoint: mean survival time, dose: 100.0 mg/kg/injection, schedule: Q01DX009 (ip), vehicle: saline 98 % of control and 102 % of control | endpoint: mean survival time, dose: 128.0 mg/kg/injection, schedule: Q01DX009 (ip), vehicle: saline 86 % of control | endpoint: mean survival time, dose: 150.0 mg/kg/injection, schedule: Q01DX009 (ip), vehicle: saline 100 % of control | endpoint: mean survival time, dose: 200.0 mg/kg/injection, schedule: Q01DX009 (ip), vehicle: saline 97 % of control and 102 % of control | endpoint: mean survival time, dose: 400.0 mg/kg/injection, schedule: Q01DX009 (ip), vehicle: saline 98 % of control and 101 % of control | endpoint: mean survival time, dose: 800.0 mg/kg/injection, schedule: Q01DX009 (ip), vehicle: saline 93 % of control and 103 % of control

NCC1OC(OC2C(N)CC(N)C(O)C2OC2OC(CO)C(O)C2O)C(N)C(O)C1O (stereo unspecified)
inactive: endpoint: mean survival time, dose: 75.0 mg/kg/injection, schedule: Q04DX003 (ip), vehicle: saline 96 % of control | endpoint: mean survival time, dose: 150.0 mg/kg/injection, schedule: Q04DX003 (ip), vehicle: saline 102 % of control | endpoint: mean survival time, dose: 300.0 mg/kg/injection, schedule: Q04DX003 (ip), vehicle: saline 100 % of control

O=C1OCCO1
inactive: [3] 92 % of control | [5] 95 % of control | [7] 97 % of control

CC1/C(=N/O)C(=O)c2ccccc21 (stereo unspecified)
inactive: [12] 102 % of control | [9] 91 % of control | [3] 86 % of control | [10] 97 % of control

CCOc1ccc(-n2c(-c3ccc(Br)cc3)csc2=NC(=O)c2ccccc2F)cc1
inactive: endpoint: mean survival time, dose: 25.0 mg/kg/injection, schedule: Q01DX009 (ip), vehicle: saline with Tween-80 92 % of control and 100 % of control | endpoint: mean survival time, dose: 25.0 mg/kg/injection, schedule: Q04DX003 (ip), vehicle: saline with Tween-80 88 % of control | [12] 88 % of control | endpoint: mean survival time, dose: 50.0 mg/kg/injection, schedule: Q04DX003 (ip), vehicle: saline with Tween-80 94 % of control | [9] 93 % of control | [4] 92 % of control and 95 % of control | [10] 91 % of control | [5] 88 % of control and 90 % of control | [11] 95 % of control | [7] 90 % of control

COC1OC2C(CO)OC(n3ncc4c3ncn3cnnc43)C2O1 (stereo unspecified)
inactive: endpoint: mean survival time, dose: 12.5 mg/kg/injection, schedule: Q01DX005 (ip), vehicle: distilled water + Tween-80 96 % of control | endpoint: mean survival time, dose: 25.0 mg/kg/injection, schedule: Q01DX005 (ip), vehicle: distilled water + Tween-80 96 % of control | endpoint: mean survival time, dose: 50.0 mg/kg/injection, schedule: Q01DX005 (ip), vehicle: distilled water + Tween-80 92 % of control | endpoint: mean survival time, dose: 100.0 mg/kg/injection, schedule: Q01DX005 (ip), vehicle: distilled water + Tween-80 96 % of control | endpoint: mean survival time, dose: 200.0 mg/kg/injection, schedule: Q01DX005 (ip), vehicle: distilled water + Tween-80 96 % of control

CC1CN(Cc2ccccc2)C1
inactive: endpoint: mean survival time, dose: 12.5 mg/kg/injection, schedule: Q01DX001 (ip), vehicle: acetone 86 % of control | endpoint: mean survival time, dose: 25.0 mg/kg/injection, schedule: Q01DX001 (ip), vehicle: acetone 96 % of control | endpoint: mean survival time, dose: 50.0 mg/kg/injection, schedule: Q01DX001 (ip), vehicle: acetone 94 % of control
